# In PubChem BioAssay AID2060353 (Molecular Pharmacology Branch, DTP, NCI, 2025):
# Where “and” joins values, the source holds several entries; their conditions need not be identical. Equal entries are not always repeated.
# System: 521955-158-R2-J5-PDC spheroids with stroma, growth inhibition
# Experiment: Anticancer human tumor 521955-158-R2-J5-PDC patient-derived pancreatic carcinoma cell line growth inhibition [TAK]
# Conditions: for viability, T/C: stronger effect = lower value
# Method in brief: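 Tumor cells were grown as spheroids with HUVEC and hMSC (60:25:15) and treated with targeted agents combined with TAK-243 or ipatasertib. Drugs were tested in half-log steps down from near the clinical Cmax, or from 10 microM where Cmax was unknown.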
# [1] = curve of first compound, second compound 0.3 µM
# [2] = curve of first compound, second compound 0.949 µM
# [3] = curve of first compound, second compound 3 µM
# [4] = curve of first compound, second compound 9.49 µM
# [5] = curve of first compound, second compound 30 µM
# [6] = second compound 0.3 µM, first compound 0.00316 µM
# [7] = second compound 0.3 µM, first compound 0.01 µM
# [8] = second compound 0.3 µM, first compound 0.0316 µM
# [9] = second compound 0.3 µM, first compound 0.1 µM
# [10] = second compound 0.949 µM, first compound 0.00316 µM
# [11] = second compound 0.949 µM, first compound 0.01 µM
# [12] = second compound 0.949 µM, first compound 0.0316 µM
# [13] = second compound 0.949 µM, first compound 0.1 µM
# [14] = second compound 3 µM, first compound 0.00316 µM
# [15] = second compound 3 µM, first compound 0.01 µM
# [16] = second compound 3 µM, first compound 0.0316 µM
# [17] = second compound 3 µM, first compound 0.1 µM
# [18] = second compound 9.49 µM, first compound 0.00316 µM
# [19] = second compound 9.49 µM, first compound 0.01 µM
# [20] = second compound 9.49 µM, first compound 0.0316 µM
# [21] = second compound 9.49 µM, first compound 0.1 µM
# [22] = second compound 30 µM, first compound 0.00316 µM
# [23] = second compound 30 µM, first compound 0.01 µM
# [24] = second compound 30 µM, first compound 0.0316 µM
# [25] = second compound 30 µM, first compound 0.1 µM
# 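Further: spheroids exposed to drugs for seven days before readout.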
# 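Wherever viability, T/C is given: 100% = DMSO vehicle control viability.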
Compound,IC50 [1] [nM],IC50 [2] [nM],IC50 [3] [nM],IC50 [4] [nM],IC50 [5] [nM],"viability, T/C [6] [%]","viability, T/C [7] [%]","viability, T/C [8] [%]","viability, T/C [9] [%]","viability, T/C [10] [%]","viability, T/C [11] [%]","viability, T/C [12] [%]","viability, T/C [13] [%]","viability, T/C [14] [%]","viability, T/C [15] [%]","viability, T/C [16] [%]","viability, T/C [17] [%]","viability, T/C [18] [%]","viability, T/C [19] [%]","viability, T/C [20] [%]",other results
COc1c(OCCCN2CCOCC2)ccc2c3n(c(=NC(=O)c4cnc(N)nc4)nc12)CCN3 + CC(C)NCC(C(=O)N1CCN(c2ncnc3c2C(C)CC3O)CC1)c1ccc(Cl)cc1,18.5,5.05,< 3.16,< 3.16,< 3.16,69.3,60.2,40.2,25.3,51,48.7,31.4,15.8,41,28,17.3,10.1,23.8,16.5,12.8,"viability, T/C (second compound 0.3 µM, first compound 0.316 µM): 7.66%; viability, T/C (second compound 0.3 µM, first compound 1 µM): 7.14%; viability, T/C (second compound 0.949 µM, first compound 0.316 µM): 8.04%; viability, T/C (second compound 0.949 µM, first compound 1 µM): 7.27%; viability, T/C (second compound 3 µM, first compound 0.316 µM): 7.86%; viability, T/C (second compound 3 µM, first compound 1 µM): 7.56%; viability, T/C [21]: 8.78%; viability, T/C (second compound 9.49 µM, first compound 0.316 µM): 7.47%; viability, T/C (second compound 9.49 µM, first compound 1 µM): 7.49%; viability, T/C [22]: 19.2%; viability, T/C [23]: 13.1%; viability, T/C [24]: 8.7%; viability, T/C [25]: 7.22%; viability, T/C (second compound 30 µM, first compound 0.316 µM): 6.67%; viability, T/C (second compound 30 µM, first compound 1 µM): 5.5%"
COc1c(OCCCN2CCOCC2)ccc2c3n(c(=NC(=O)c4cnc(N)nc4)nc12)CCN3,,,,,,,,,,,,,,,,,,,,,"viability, T/C (compound 0.00316 µM): 96.6% and 79.7%; viability, T/C (compound 0.01 µM): 71.7% and 68.7%; viability, T/C (compound 0.0316 µM): 48.8% and 53.6%; viability, T/C (compound 0.1 µM): 29.3%; viability, T/C (compound 0.316 µM): 9.38% and 8.89%; viability, T/C (compound 1 µM): 8.06% and 7.65%; IC50 (curve of compound): 28.8 nM and 36.1 nM"
COC1CC2CCC(C)C(O)(O2)C(=O)C(=O)N2CCCCC2C(=O)OC(C(C)CC2CCC(OCCO)C(OC)C2)CC(=O)C(C)C=C(C)C(O)C(OC)C(=O)C(C)CC(C)C=CC=CC=C1C (configuration not stated) + CC(C)NCC(C(=O)N1CCN(c2ncnc3c2C(C)CC3O)CC1)c1ccc(Cl)cc1,> 100,> 100,> 100,> 100,< 0.316,77.3,76,82.4,65.5,79.8,79.7,89,86.7,93.9,80.9,75.7,76.2,78.6,68.3,60.9,"viability, T/C (second compound 0.3 µM, first compound 0.000316 µM): 118%; viability, T/C (second compound 0.3 µM, first compound 0.001 µM): 95.9%; viability, T/C (second compound 0.949 µM, first compound 0.000316 µM): 79.4%; viability, T/C (second compound 0.949 µM, first compound 0.001 µM): 75.1%; viability, T/C (second compound 3 µM, first compound 0.000316 µM): 97.8%; viability, T/C (second compound 3 µM, first compound 0.001 µM): 98.3%; viability, T/C (second compound 9.49 µM, first compound 0.000316 µM): 78.3%; viability, T/C (second compound 9.49 µM, first compound 0.001 µM): 84.5%; viability, T/C [21]: 60.6%; viability, T/C (second compound 30 µM, first compound 0.000316 µM): 46.4%; viability, T/C (second compound 30 µM, first compound 0.001 µM): 42.2%; viability, T/C [22]: 33.8%; viability, T/C [23]: 26.7%; viability, T/C [24]: 31.2%; viability, T/C [25]: 32.4%"
